A short description of the data set: Measurement of LogP values by HPLC on reversed phase columns (EEC directive 79/831 Annex V.A8). It counts as physicochemical. Here is the method:
The abbreviations and numerations of the substituent positions used in the context of the present invention and in the following Tables are explained in detail in the section Examples hereinafter. Also, the LogP values indicated in the following Tables are explained in detail in the section Examples hereinafter. In case LogP values for different diastereoisomers of a specific compound are […], said LogP values are […] by a “+”. […] Measurement of LogP values was performed according to EEC directive 79/831 Annex V.A8 by HPLC (High Performance Liquid Chromatography) on reversed phase columns with the following methods: […] Lambda-max-values were determined using UV-spectra from 200 nm to 400 nm and the peak values of the chromatographic signals

Marks after values point to notes of the source that are not given here.

On to `COc1ccc(CN(C)c2nsc(C(=O)N[C@@H](C)C3CCCCC3)c2Cl)cc1` [I-087], for which the LogP is 5.51[a].
`COc1ccc(CN(C)c2nsc(C(=O)NCc3ccccc3F)c2Cl)cc1` [I-088]: the LogP is 4.21[a].
As to `Nc1nsc(C(=O)NCC2=CCCCC2)c1Cl` [I-089], the LogP was 2.30[a].
As to `C[C@H](NC(=O)c1snc(NC(=O)C2CC2)c1Cl)C1CCCCC1` [I-090], the LogP is 2.99[a].
Regarding `C[C@H](NC(=O)c1snc(NC(=O)c2ccccc2)c1Cl)C1CCCCC1` [I-091], the LogP was 3.64[a].
On to `O=C(NCc1ccccc1F)c1snc(NC(=O)C2CC2)c1Cl` [I-093], for which the LogP was 2.12[a].
For `CC(=O)N(C(C)=O)c1nsc(C(=O)N[C@@H](C)C2CCCCC2)c1Cl` [I-094], the LogP was 3.73[a].
Consider `CC(=O)Nc1nsc(C(=O)N[C@@H](C)C2CCCCC2)c1Cl` [I-097], for which the LogP is 2.51[a].
Take `COc1ccc(CNc2nsc(C(=O)NCC3CCCCC3)c2Cl)cc1` [I-098]: the LogP is 4.20[a].
Regarding `COc1ccc(CNC(=O)c2cc(N)ns2)cn1` [I-099], the LogP was 0.86[a].
On to `CC(=O)Nc1nsc(C(=O)NCc2ccccc2F)c1Cl` [I-100], for which the LogP was 1.70[a].
Regarding `CC(=O)N(C(C)=O)c1nsc(C(=O)NCc2ccccc2F)c1Cl` [I-101], the LogP was 2.64[a].
Under `COc1ccc(CNC(=O)c2snc(NCc3ccc(OC)cc3)c2Cl)cc1` [I-102] stands 3.46[a]; under `C[C@H](NC(=O)c1snc(N(S(C)(=O)=O)S(C)(=O)=O)c1Cl)C1CCCCC1` [I-103], 3.76[a]; under `Cc1c(N)nsc1C(=O)NCc1ccc(C(F)(F)F)cc1F` [I-104], 2.18[a].
On to `COc1ccc(CNc2nsc(C(=O)NCC3(O)CCCCC3)c2Cl)cc1` [I-105], for which the LogP is 3.09[a].
Take `COc1ccc(CNc2nsc(C(=O)NCC3CCCC(C(F)(F)F)C3)c2Cl)cc1` (stereo not drawn) [I-106]: the LogP was 4.33[a].
In the case of `COc1ccc(CNc2nsc(C(=O)NCC3CCC(C(F)(F)F)CC3)c2Cl)cc1` (stereo not drawn) [I-107] it was 4.30[a]; in that of `COC(=O)Nc1nsc(C(=O)N[C@@H](C)C2CCCCC2)c1Cl` [I-108], 2.84[a]; in that of `CCC(=O)Nc1nsc(C(=O)NCC2CCCCC2)c1Cl` [I-109], 2.50[a].
Turning to `Cc1c(N)nsc1C(=O)NCc1ccc(Cl)nc1` [I-110], the LogP is 1.09[a].
In the case of `COc1ccc(CNc2nsc(C(=O)NC3CCc4ccccc43)c2Cl)cc1` (stereo not drawn) [I-111] it was 4.04[a]; in that of `COc1ccc(CNc2nsc(C(=O)NC(C)c3ccccc3Cl)c2Cl)cc1` (stereo not drawn) [I-112], 4.16[a].
In the case of `COc1ccc(CNc2nsc(C(=O)NC3(C4CCCCC4)CC3)c2Cl)cc1` [I-113], the LogP is 4.69[a].
Under `COc1ccc(CNC(=O)c2snc(N)c2Cl)cn1` [I-114] stands 1.23[a].
For the compound `Nc1nsc(C(=O)NC2CC2)c1Cl` [I-115], the LogP was 0.84[a].
As to `Cc1cc(C)c(CN(C(=O)c2snc(N)c2Cl)C2CC2)c(C)c1` [I-116], the LogP is 3.46[a].
In the case of `Cc1cc(C)cc(CN(C(=O)c2snc(N)c2Cl)C2CC2)c1` [I-117] it was 3.15[a]; in that of `CC(C)c1ccccc1CN(C(=O)c1snc(N)c1Cl)C1CC1` [I-118], 3.33[a].
Consider `Cc1ccc(C)c(CN(C(=O)c2snc(N)c2Cl)C2CC2)c1` [I-119], for which the LogP is 3.04[a].
With `Nc1nsc(C(=O)NCc2cccc(F)c2F)c1Cl` [I-120], the LogP is 1.91[a].
Under `Nc1nsc(C(=O)NCc2ccc(F)c(F)c2F)c1Cl` [I-121] stands 2.09[a]; under `Nc1nsc(C(=O)NCc2ccc(Cl)nc2)c1Cl` [I-122], 1.31[a].
Turning to `Cc1ccc(CNC(=O)c2snc(N)c2Cl)c(F)c1F` [I-123], the LogP was 2.26[a].
Consider `Nc1nsc(C(=O)NCc2ccccc2C(F)F)c1Cl` [I-124], for which the LogP is 2.01[a].
On to `Nc1nsc(C(=O)NCc2ccc(F)c(F)c2)c1Cl` [I-125], for which the LogP was 1.93[a].
Under `COc1ccc(CNC(=O)c2snc(N)c2Cl)c(F)c1` [I-126] stands 1.88[a].
For `Cc1ccc(F)cc1CNC(=O)c1snc(N)c1Cl` [I-127], the LogP is 2.08[a].
Turning to `Nc1nsc(C(=O)NCc2c(F)cccc2F)c1Cl` [I-128], the LogP is 1.81[a].
`Nc1nsc(C(=O)NCc2c(F)ccc(F)c2F)c1Cl` [I-129]: the LogP is 1.91[a].
In the case of `Nc1nsc(C(=O)NCc2cc(F)cc(F)c2F)c1Cl` [I-130] it was 2.03[a].
With `Nc1nsc(C(=O)NCc2cc(F)c(F)c(F)c2)c1Cl` [I-131], the LogP was 2.13[a].
Take `Nc1nsc(C(=O)NCc2c(F)cccc2Cl)c1Cl` [I-132]: the LogP was 2.06[a].
Turning to `Nc1nsc(C(=O)NCc2ccc(C(F)F)cc2)c1Cl` [I-133], the LogP is 1.91[a].
As for `Nc1nsc(C(=O)NCc2c(F)cc(F)cc2F)c1Cl` [I-134], the LogP is 1.96[a].
Under `C#CCOC(=O)N(C(=O)OCC#C)c1nsc(C(=O)N[C@@H](C)C2CCCCC2)c1Cl` [I-135] stands 3.96[a].
In the case of `COc1ccc(CNC(=O)c2snc(N)c2C)cn1` [I-136] it was 0.96[a]; in that of `C#CCOC(=O)Nc1nsc(C(=O)N[C@@H](C)C2CCCCC2)c1Cl` [I-137], 3.17[a].
In the case of `Nc1nsc(C(=O)NCC2(O)CCCCC2)c1Cl` [I-138] it was 1.51[a].
`Nc1nsc(C(=O)NCC2CCCC(C(F)(F)F)C2)c1Cl` (stereo not drawn) [I-139]: the LogP was 2.66[a].
In the case of `Nc1nsc(C(=O)NC2CCc3ccccc32)c1Cl` (stereo not drawn) [I-140] it was 2.30[a].
In the case of `Nc1nsc(C(=O)NCC2CCC(C(F)(F)F)CC2)c1Cl` (stereo not drawn) [I-141] it was 2.71[a].
Consider `CC(NC(=O)c1snc(N)c1Cl)c1ccccc1Cl` (stereo not drawn) [I-142], for which the LogP was 2.46[a].
As to `Nc1nsc(C(=O)NC2(C3CCCCC3)CC2)c1Cl` [I-143], the LogP was 2.82[a].
On to `Cc1ccc(CNC(=O)c2snc(N)c2C)c(F)c1` [I-145], for which the LogP was 1.81[a].
With `Cc1c(N)nsc1C(=O)NCc1c(F)cccc1F` [I-146], the LogP was 1.49[a].
`Cc1c(N)nsc1C(=O)NCc1cccc(F)c1F` [I-147]: the LogP is 1.64[a].
As to `Cc1c(N)nsc1C(=O)NCc1ccc(F)c(F)c1` [I-149], the LogP was 1.69[a].
In the case of `Cc1c(N)nsc1C(=O)NCc1ccc(C#N)cc1F` [I-150], the LogP was 1.35[a].
With `Cc1cc(C)c(CN(C(=O)c2snc(N)c2Cl)C2CC2)cc1C` [I-151], the LogP was 3.39[a].
With `Cc1ccc(CN(C(=O)c2snc(N)c2Cl)C2CC2)c(C)c1` [I-152], the LogP is 3.09[a].
In the case of `CCc1ccccc1CN(C(=O)c1snc(N)c1Cl)C1CC1` [I-153] it was 3.04[a].
For the compound `Cc1cccc(C)c1CN(C(=O)c1snc(N)c1Cl)C1CC1` [I-154], the LogP was 3.02[a].
`Cc1c(N)nsc1C(=O)NCc1ccc(C(F)F)cc1` [I-156]: the LogP was 1.66[a].
Take `Cc1c(N)nsc1C(=O)NCc1ccccc1C(F)F` [I-157]: the LogP was 1.74[a].
For `Cc1c(N)nsc1C(=O)NCc1ccc(Cl)cc1F` [I-159], the LogP was 2.00[a].

For the origin of these results see US20190110476A1, “NOVEL ISOTHIAZOLAMIDES, PROCESSES FOR THEIR PREPARATION AND THEIR USE AS FUNGICIDES” (priority 2014, published 2019).
